Measurements from US8603493B2, “Carbosilane dendrimers, preparation method thereof and use of same” (Dendrico, S.L., priority 2005, dated 2013).

Assays:
PBMC = test: Transfection test of PBMC (confocal microscopy); type: cell-based, human; details: after 48 hours
Protocol: After incubations with the mixtures containing fluorescent ODNs, dendriplexes, dendrimers or RPMI, the cells were treated for the subsequent acquisition of images in the conventional confocal or fluorescence microscope. The cells were adhered to glass slides with wells of 30 mm in diameter by Poly-L-lysine, (PLL) (Sigma®). To do this, the slides were preincubated with 30 μl of PLL during 2 hours in an incubator at 37° C. and 5% CO2. After this incubation, the excess PLL was washed with PBS. The cells from each treatment that were going to be adhered in the PLL were washed twice with PBS and were labelled for 1 minute with 0.8% Trypan Blue (Sigma®) to then show the […] cells. They were again washed twice with PBS. At that time the cells were added to the well (100,000/well), being disposed on the PLL during 1 hour in an incubator at 37° C. and 5% CO2. After this hour, the excess volume was washed with PBS and the cells were treated with recently prepared 3% paraformaldehyde (PFA) (within 2 weeks of its use) during 10 minutes. […] Finally, the preparation was mounted using a special medium for fluorescence (DAKO Cytomation Fluorescent Mounting Medium®) with antifading (designed to protect the sample from deterioration caused by lasers). […] After the capture of images, it was analysed using Leica® software. […]

plasmid Nf-kappaB-luc = test: Capacity to form complexes with large-sized DNA (plasmid); type: binding; details: charge ratio (+/−)=6/1 manages to retain DNA migration
Protocol: In a similar form to the previous experiments, electrophoresis was carried out with different samples, placing them a ladder type marker which measures up to 5000 pb in the well previous to it.

U87-MG cells = test: Toxicity in U-87-MG cells: LDH in the supernatant
Excerpt: The concentrations and volumes of each one of these compounds were the same used in the test performed with MTT. The commercial kit Cytotoxicity Detection KitPLUS (LDH), from Roche Applied Science was used to determine lactate dehydrogenase, following the manufacturer's instructions.

## C[Si](C)(CCCN)CCC[Si](C)(CCC[Si](C)(C)CCCN)CCC[Si](CCC[Si](C)(CCC[Si](C)(C)CCCN)CCC[Si](C)(C)CCCN)(CCC[Si](C)(CCC[Si](C)(C)CCCN)CCC[Si](C)(C)CCCN)CCC[Si](C)(CCC[Si](C)(C)CCCN)CCC[Si](C)(C)CCCN.Cl.Cl.Cl.Cl.Cl.Cl.Cl.Cl [ClNH4, 2G-[Si(CH2)3NH3^+Cl^−]8]
PBMC
  fluorescence pattern after transfection with PPT dendriplexes: fluorescence pattern in aggregates

## C[N+](C)(C)CCO[Si](C)(C)CCC[Si](C)(CCC[Si](CCC[Si](C)(CCC[Si](C)(C)OCC[N+](C)(C)C)CCC[Si](C)(C)OCC[N+](C)(C)C)(CCC[Si](C)(CCC[Si](C)(C)OCC[N+](C)(C)C)CCC[Si](C)(C)OCC[N+](C)(C)C)CCC[Si](C)(CCC[Si](C)(C)OCC[N+](C)(C)C)CCC[Si](C)(C)OCC[N+](C)(C)C)CCC[Si](C)(C)OCC[N+](C)(C)C.[I-].[I-].[I-].[I-].[I-].[I-].[I-].[I-] [IM8, 2G-[Si(OCH2CH2NMe3^+I^−)]8]
Plasmid Nf-kappaB-luc
  complex formation with plasmid: capable of forming complexes with the plasmid used

## CN(CCO[Si](C)(C)CCC[Si](C)(CCC[Si](CCC[Si](C)(CCC[Si](C)(C)OCCN(C)CC[N+](C)(C)C)CCC[Si](C)(C)OCCN(C)CC[N+](C)(C)C)(CCC[Si](C)(CCC[Si](C)(C)OCCN(C)CC[N+](C)(C)C)CCC[Si](C)(C)OCCN(C)CC[N+](C)(C)C)CCC[Si](C)(CCC[Si](C)(C)OCCN(C)CC[N+](C)(C)C)CCC[Si](C)(C)OCCN(C)CC[N+](C)(C)C)CCC[Si](C)(C)OCCN(C)CC[N+](C)(C)C)CC[N+](C)(C)C.[I-].[I-].[I-].[I-].[I-].[I-].[I-].[I-] [NN, 2G-[Si(O(CH2)2N(Me)(CH2)2NMe3^+I^−)]8]
U87-MG cells
  cytotoxicity (LDH), comparison: greater cytotoxicity as their concentration increases
